For data set [1], the system named is RAW264.7. Kind of data set: Cytotoxicity against LPS-induced mouse RAW264.7 cells assessed as reduction in cell viability at 30 uM measured after 24 hrs by XTT assay. In kind it is toxicity, cell-based. The settings on record: raw264.7, 24 h.
The test system of the next data set is HL-60. Kind of data set: Cytotoxicity against human HL-60 cells at 30 uM. The data set is classed as functional, cell-based.
In data set [2] the test system is RAW264.7. The data set can be described thus: Anti-inflammatory activity against mouse RAW264.7 cells assessed as inhibition of LPS-induced IL-6 mRNA level pretreated for 1 hr followed by induced with LPS measured after 6 hrs by quantitative RT-PCR analysis. In kind it is functional, cell-based. The settings on record: dose 1-30 µM, time 7.0 hrs.
Data set [3] relates to RAW264.7. Kind of data set: Anti-inflammatory activity against mouse RAW264.7 cells assessed as inhibition of LPS-induced iNOS mRNA level pretreated for 1 hr followed by induced with LPS measured after 6 hrs by quantitative RT-PCR analysis. In kind it is functional, cell-based. The note with it: dose 1-30 µM, time 7.0 hrs.
Another data set has as its system ACHN. Kind of data set: Cytotoxicity against human ACHN cells at 30 uM. The data set is classed as functional, cell-based.
The test system of the next data set is RPMI-1788. Kind of data set: Cytotoxicity against human RPMI-1788 cells at 30 uM. In kind it is functional, cell-based.
A further data set relates to Raji. The data set can be described thus: Cytotoxicity against human Raji cells at 30 uM. In kind it is functional, cell-based.
Data set [4] deals with RAW264.7. The data set can be described thus: Anti-inflammatory activity in LPS-induced mouse RAW264.7 cells assessed as suppression of NO production pretreated for 1 hr followed by LPS addition and measured after 24 hrs by Griess reagent based assay. In kind it is functional, cell-based.
A further data set deals with K562. The data set can be described thus: Cytotoxicity against human K562 cells at 30 uM. The data set is classed as functional, cell-based.
The test system of another data set is WSUDLCL2. Kind of data set: Cytotoxicity against human WSUDLCL2 cells at 30 uM. The data set is classed as functional, cell-based.
The subject of another data set is MDA-MB-231. Kind of data set: Cytotoxicity against human MDA-MB-231 cells at 30 uM. The data set is classed as functional, cell-based.
A further data set deals with NCI-H23. Kind of data set: Cytotoxicity against human NCI-H23 cells at 30 uM. In kind it is functional, cell-based.
The next data set relates to HCT-15. Kind of data set: Cytotoxicity against human HCT-15 cells at 30 uM. The data set is classed as functional, cell-based.
Data set [5] relates to RAW264.7. Kind of data set: Anti-inflammatory activity in LPS-induced mouse RAW264.7 cells assessed as suppression of IL-6 level pretreated for 1 hr followed by LPS addition and measured after 24 hrs by ELISA method. The data set is classed as functional, cell-based. (In general: In an ELISA, binding on a coated surface is turned into a signal by an enzyme label.)
A further data set concerns RPMI 8402. Kind of data set: Cytotoxicity against human RPMI 8402 cells at 30 uM. In kind it is functional, cell-based.
The test system of another data set is U-266. Kind of data set: Cytotoxicity against human U-266 cells at 30 uM. The data set is classed as functional, cell-based.
A further data set has as its system NALM-6. The data set can be described thus: Cytotoxicity against human NALM-6 cells at 30 uM. The data set is classed as functional, cell-based.
In another data set the test system is PC-3. The data set can be described thus: Cytotoxicity against human PC-3 cells at 30 uM. The data set is classed as functional, cell-based.
Data set [6] relates to RAW264.7. The data set can be described thus: Anti-inflammatory activity in LPS-induced mouse RAW264.7 cells assessed as suppression of NO production at 30 uM pretreated for 1 hr followed by LPS addition and measured after 24 hrs by Griess reagent based assay. The settings on record: time 25.0 hrs. The data set is classed as functional, cell-based.
The test system of the next data set is NUGC-3. Kind of data set: Cytotoxicity against human NUGC-3 cells at 30 uM. The data set is classed as functional, cell-based.

Calls of active or inactive are those of the source. The rule behind the calls is not given here.

For `CC(=O)N(O)CCCn1c(C)cc(C)c1C(=O)[C@@H](O)CO`, the Activity entry in the data set on RAW264.7 [1] is on record as “Non-toxic”.
On the same count and under the same terms, as for `Cc1cc(C)n(CCc2ccc(O)cc2)c1C=O`, the entry is “Non-toxic”.
Broadly, the IC50 is the midpoint of a concentration-inhibition curve. Consider `C=C1C=C(C)C(=O)N1CCc1ccc(O)cc1`, for which the Activity entry in the data set with RAW264.7 [1] is “Non-toxic”; in the data set with RAW264.7 [4] (time 25.0 hrs), “Dose-dependent-effect”; with RAW264.7 [5] (time 25.0 hrs) it was “Dose-dependent-effect”. Further, the outcome with HL-60, with ACHN, with RPMI-1788, in the data set on Raji, in the data set on K562 and in the data set with WSUDLCL2 was inactive. Also, the outcome in the data set with MDA-MB-231, in the data set with NCI-H23, in the data set on HCT-15, with RPMI 8402, in the data set on U-266 and with NALM-6 was inactive. Further, the outcome in the data set with PC-3 and in the data set on NUGC-3 was inactive. Also, the inhibition result in the data set on RAW264.7 [2] and with RAW264.7 [3] was “Dose-dependent-effect” throughout. Moreover, the IC50 in the data set on RAW264.7 [4] was determined as 29.5 µM; in the data set on RAW264.7 [5] it was 10.9 µM. Besides, the result in the data set with RAW264.7 [6] was Active.
With `CO[C@@]1(C)C=C(C)C(=O)N1CCc1ccc(O)cc1`, in the data set with RAW264.7 [1], the Activity entry is given as “Non-toxic”.
As for `CO[C@@]1(C)C=C(C)C(=O)N1CC(=O)c1ccccc1`, in the data set with RAW264.7 [1], the Activity entry is given as “Non-toxic”.
For `CC1=C[C@@](C)(O)N(CCc2ccc(O)cc2)C1=O`, the Activity result in the data set on RAW264.7 [1] is reported as “Non-toxic”.

The record behind these values is ChEMBL document CHEMBL6103674, “Xiapyrroles A-F: N-Alkylpyrrole Alkaloids from the Marine-Derived Actinomycete Streptomyces xiamenensis 1310KO-148” (J Nat Prod, 2025).
